{"source": "patent US20130295579A1", "about": "“METHOD FOR PREPARING INDUCED PLURIPOTENT STEM CELLS AND MEDIUM USED FOR PREPARING INDUCED PLURIPOTENT STEM CELLS” (SHANGHAI INSTITUTE OF MATERIA MEDICA, CHINESE ACADEMY OF …, priority 2010, published 2013)", "format_in_all_cases": "cell-based", "key": {"[1]": {"tested_on": "OG2 mouse embryonic fibroblasts", "assay": "Four-factor (Oct4, Sox2, Klf4, c-Myc) iPS induction, counting of Oct-GFP+ colonies by fluorescence microscope", "settings": "four factors; for number of Oct-GFP+ colonies per well: 96-well plate", "procedure": "Retrovirus were produced by transfecting plat-E cells with pMXs retroviral vectors containing the cDNAs of mouse Oct4, Sox2, Klf4 and c-Myc (purchased from Addgene) using Fugene HD (Roche) according to the manufacturer's protocol. After 48 hours, virus-containing supernatants were collected and filtered. The filtered supernatant was supplemented with 8 mg/L of polybrene, and then was used to infect mouse embryonic fibroblasts. The day when adding virus containing supernatants is counted as “day 0”. The fibroblasts infected with the virus were cultured in the mES medium, and iPS colonies were picked from day 14 to the day 18 after infection (four-factor infection experiment) or from day 20 to day 24 after infection (three-factor infection experiment), based on the expression of Oct-GFP and the typical morphology of stem cells.\n(§1) The main method for calculating the reprogramming efficiency is the counting of the Oct-GFP^+ cells, including: 1. Using flow cytometry to determine the percentage of Oct-GFP^+ cells in the cell culture, which were infected with four factors for 10 to 12 days or with three factors for 14 to 16 days, or 2. directly counting the Oct-GFP^+ colonies in the wells by using fluorescence microscope.\na. Same volumes of the viruses carrying Oct4, Sox2, Klf4 or c-Myc were mixed and added to a total of 180,000 OG2 mouse embryonic fibroblasts in one well of a 6-well plate and cells were cultured in DMEM medium supplemented with 10% fetal bovine serum at 37° C. and 5% CO2. The day of viral infection was counted as “day 0”. On day 2, cells were trypsinized and resuspended in the mES medium, and then seeded at a density of 5,000 cells per well onto a 96-well plate pre-seeded with irradiated mouse embryonic fibroblast feeders. The mES medium supplemented with different concentrations of LiCl (0.6 mM, 1.2 mM, 2.5 mM, 5 mM, 10 mM, 20 mM and 40 mM) were used from day 3. On day 6, the medium was replaced with KSR medium supplemented with different concentrations of LiCl (0.6 mM, 1.2 mM, 2.5 mM, 5 mM, 10 mM, 20 mM and 40 mM). On day 8, the medium was replaced with KSR medium again.\nb. Using the method described in step a, from day 8, Oct-GFP^+ colonies were observed and counted under an inverted fluorescence microscope every day, and pictures were also taken with a fluorescence microscope. FIG. 2A was representative images of wells in the 96-well plate on day 10, in which there were more GFP^+ colonies in 10 mM LiCl treated well than in untreated well. […] On day 8, GFP^+ colony could barely be observed in control wells, while approximately 10 GFP^+ colonies could be observed in 10 mM LiCl treated wells. On day 10, approximately 20 GFP^+ colonies could be observed in 10 mM LiCl treated wells, with induction efficiency 5 to 6 times of that of control wells'."}, "[2]": {"tested_on": "OG2 mouse embryonic fibroblasts", "assay": "Four-factor iPS induction, percentage of Oct-GFP+ cells by flow cytometry", "settings": "four factors, 10 mM LiCl, day 12, three independent experiments", "procedure": "(§2) Retrovirus were produced by transfecting plat-E cells with pMXs retroviral vectors containing the cDNAs of mouse Oct4, Sox2, Klf4 and c-Myc (purchased from Addgene) using Fugene HD (Roche) according to the manufacturer's protocol. After 48 hours, virus-containing supernatants were collected and filtered. The filtered supernatant was supplemented with 8 mg/L of polybrene, and then was used to infect mouse embryonic fibroblasts. The day when adding virus containing supernatants is counted as “day 0”. […]\nas §1\n(§3) a. […] The day of viral infection was counted as “day 0”. […]\nc. Using the method described in step a, on day 12, cells were trypsinized and percentage of Oct-GFP^+ cells was determined by using flow cytometry. […]"}, "[3]": {"tested_on": "OG2 mouse embryonic fibroblasts", "assay": "Three-factor (Oct4, Sox2, Klf4) iPS induction, counting of Oct-GFP+ colonies by fluorescence microscope", "settings": "three factors, day 14", "procedure": "as §2, §1, §3\nb. Using the method described in step a, from day 12, Oct-GFP^+ colonies were observed and counted under an inverted fluorescence microscope every day, and pictures were also taken with a fluorescence microscope."}, "[4]": {"tested_on": "OG2 mouse embryonic fibroblasts", "assay": "Three-factor iPS induction, percentage of Oct-GFP+ cells by flow cytometry", "settings": "three factors, 10 mM LiCl, day 16", "procedure": "as §2, §1, §3\nc. Using the method described in step a, on day 16, cells were trypsinized and the percentage of Oct-GFP^+ cells was determined by using flow cytometry."}}, "note": "“Also recorded” adds a separate entry of the source."}
{"smiles": "[Cl-].[Li+]", "note": "[LiCl, lithium chloride]", "values": [{"measurement": "number of Oct-GFP+ colonies per well", "setting": "[1]; 10 mM LiCl, day 8 after infection", "result": "approximately 10"}, {"measurement": "induction efficiency relative to control wells (colony count)", "setting": "[1]; 10 mM LiCl, day 10", "result": "5 to 6", "unit": "times"}, {"measurement": "number of Oct-GFP+ colonies per well", "setting": "[1]; 10 mM LiCl, day 10 after infection", "result": "approximately 20"}, {"measurement": "most effective dose of LiCl (number of positive colonies)", "setting": "[1]; tested 0.6-40 mM", "result": 10, "unit": "mM"}, {"measurement": "induction efficiency increase versus wells without treatment (flow cytometry)", "setting": "[2]", "result": "5 to 6", "unit": "times"}, {"measurement": "induction efficiency of iPS cells versus control groups (colony count)", "setting": "[3]; 5 mM or 10 mM LiCl", "result": "enhanced; also recorded: significantly improved"}, {"measurement": "induction efficiency increase versus control groups (colony count)", "setting": "[3]; 10 mM LiCl", "result": "approximately 7 times"}, {"measurement": "increase of percentage of Oct-GFP+ cells versus control groups", "setting": "[4]", "result": "approximately 60 times"}, {"measurement": "percentage of Oct-GFP+ cells", "setting": "[4]", "result": 14.5, "unit": "%"}]}
